Results reported in patent US10343992B2, “1-cyano-pyrrolidine compounds as USP30 inhibitors” (MISSION THERAPEUTICS LIMITED, priority 2015, dated 2019).

Each molecule was assayed against USP30 (Homo sapiens (Human), UniProt Q70CQ3) (assay: USP30 biochemical FP or FI IC50 assay). Settings: read-out: IC50 range.
How it was run: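 Human USP30 preincubated 30 min at room temperature with compound (8-point series, 100 µM top final) in Tris pH 7.5, Tween 20, BSA, 5 mM β-mercaptoethanol, in duplicate. FP format: 50 nM TAMRA-peptide–isopeptide-ubiquitin substrate, ex 540/em 590. FI format: 100 nM ubiquitin-rhodamine 110, ex 487/em 535. Both read at 0 and after 2 h at room temperature.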

Chain of USP30 (Q70CQ3 57-517): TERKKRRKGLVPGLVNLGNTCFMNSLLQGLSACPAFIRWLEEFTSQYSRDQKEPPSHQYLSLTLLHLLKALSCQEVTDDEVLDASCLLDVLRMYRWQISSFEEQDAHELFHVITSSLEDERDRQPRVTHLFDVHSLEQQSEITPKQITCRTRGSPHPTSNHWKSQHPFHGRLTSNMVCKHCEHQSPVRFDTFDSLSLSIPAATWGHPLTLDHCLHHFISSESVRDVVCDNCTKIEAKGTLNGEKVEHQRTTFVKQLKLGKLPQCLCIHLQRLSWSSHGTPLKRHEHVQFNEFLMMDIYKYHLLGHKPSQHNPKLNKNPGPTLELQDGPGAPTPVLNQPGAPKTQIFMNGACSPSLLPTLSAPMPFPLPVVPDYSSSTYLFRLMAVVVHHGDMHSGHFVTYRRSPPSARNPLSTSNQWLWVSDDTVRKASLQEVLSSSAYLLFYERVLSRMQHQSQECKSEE

Molecule	IC50 [nM]
Cn1cc(-c2ccc(C(=O)NC3(C)CCN(C#N)C3)c(F)c2)cn1 (stereo not drawn) [Example 94, N-(1-cyano-3-methylpyrrolidin-3-yl)-2-fluoro-4-(1-methyl-1H-pyrazol-4-yl)benzamide]	1000 to 10000
Cn1cc(C2CCN(C(=O)N[C@@H]3CCN(C#N)C3)C2)cn1 (stereo partly drawn) [Example 226, N-((R)-1-cyanopyrrolidin-3-yl)-3-(1-methyl-1H-pyrazol-4-yl)pyrrolidine-1-carboxamide]	1000 to 10000
CO[C@H]1CN(C#N)C[C@@H]1N(C)C(=O)c1ccc(-c2cnn(C)c2)cc1 (relative stereo) [Example 178, N-((trans)-1-cyano-4-methoxypyrrolidin-3-yl)-N-methyl-4-(1-methyl-1H-pyrazol-4-yl)benzamide]	100 to 1000
COc1ccc(-c2cc(C(=O)N3CC[C@@H]4CN(C#N)C[C@@H]43)[nH]n2)cc1 (racemic) [Example 55, rac-(3aR,6aR)-1-(3-(4-methoxyphenyl)-1H-pyrazole-5-carbonyl)hexahydropyrrolo[3,4-b]pyrrole-5(1H)-carbonitrile]	100 to 1000
N#CN1CC[C@H](NC(=O)c2ccc(-c3ccncc3)cc2)C1 [Example 47, (S)-N-(1-cyanopyrrolidin-3-yl)-4-(pyridin-4-yl)benzamide]	1000 to 10000
N#CN1CC[C@@H](NC(=O)c2cc(-c3ccc(C(F)(F)F)cc3)no2)C1 [Example 219, (R)-N-(1-cyanopyrrolidin-3-yl)-3-(4-(trifluoromethyl)phenyl)isoxazole-5-carboxamide]	100 to 1000
C[C@H]1CN(C#N)C[C@@H]1NC(=O)c1ncc(-c2ccccc2)s1 [Example 69, N-((3R,4S)-1-cyano-4-methylpyrrolidin-3-yl)-5-phenylthiazole-2-carboxamide]	1000 to 10000
N#CN1CC[C@@H](NC(=O)c2ccc(N3CCOCC3)c(F)c2)C1 [Example 32, (R)-N-(1-cyanopyrrolidin-3-yl)-3-fluoro-4-morpholinobenzamide]	100 to 1000
N#CN1CC[C@@H](NC(=O)N2CC(c3ccnc(-c4ccccc4)n3)C2)C1 [Example 236, (R)-N-(1-cyanopyrrolidin-3-yl)-3-(2-phenylpyrimidin-4-yl)azetidine-1-carboxamide]	100 to 1000
COc1cc(C(=O)N[C@@H]2CCN(C#N)C2)ccc1Nc1nccc(C)n1 [Example 148, (R)-N-(1-cyanopyrrolidin-3-yl)-3-methoxy-4-((4-methylpyrimidin-2-yl)amino)benzamide]	100 to 1000
N#CN1CC[C@@H](NC(=O)N2CCC(c3ccccn3)C2)C1 (stereo partly drawn) [Example 225, N-((R)-1-cyanopyrrolidin-3-yl)-3-(pyridin-2-yl)pyrrolidine-1-carboxamide]	1000 to 10000
N#CN1CCC(NC(=O)c2ccc(N3CCC(C(N)=O)CC3)nc2)C1 (racemic) [Example 18, 6-(4-carbamoylpiperidin-1-yl)-N-(1-cyanopyrrolidin-3-yl)nicotinamide]	1000 to 10000
N#CN1C[C@H]2CCN(C(=O)Nc3ccc(OC(F)(F)F)cc3F)[C@H]2C1 [Example 197, (3aR,6aR)-5-cyano-N-(2-fluoro-4-(trifluoromethoxy)phenyl)hexahydropyrrolo[3,4-b]pyrrole-1(2H)-carboxamide]	< 100
N#CN1CCC(NC(=O)c2nc(-c3ccccc3)cs2)C1 (racemic) [Example 7, N-(1-cyanopyrrolidin-3-yl)-4-phenylthiazole-2-carboxamide]	100 to 1000
N#CN1CC[C@@H](NC(=O)c2cc(N3Cc4ccccc4C3)ncc2F)C1 [Example 141, (R)-N-(1-cyanopyrrolidin-3-yl)-5-fluoro-2-(isoindolin-2-yl)isonicotinamide]	100 to 1000
Cc1cc(-c2ccc(NC(=O)N3CC[C@@H]4CN(C#N)C[C@@H]43)nc2)ccn1 [Example 244, (3aR,6aR)-5-cyano-N-(2′-methyl-[3,4′-bipyridin]-6-yl)hexahydropyrrolo[3,4-b]pyrrole-1(2H)-carboxamide]	< 100
CC(C)C(=O)N(C)c1ccnc(C(=O)N[C@@H]2CCN(C#N)C2)c1 [Example 215, (R)-N-(1-cyanopyrrolidin-3-yl)-4-(N-methylisobutyramido)picolinamide]	100 to 1000
CN(C(=O)N1CCc2ccccc21)[C@@H]1CCN(C#N)C1 [Example 265, (R)-N-(1-cyanopyrrolidin-3-yl)-N-methylindoline-1-carboxamide]	1000 to 10000
N#CN1CC[C@@H](NC(=O)c2ccc(-c3ccncn3)cc2F)C1 [Example 108, (R)-N-(1-cyanopyrrolidin-3-yl)-2-fluoro-4-(pyrimidin-4-yl)benzamide]	100 to 1000
N#CN1CC[C@@H](NC(=O)N2CC(c3ccc(Cl)cc3)C2)C1 [Example 191, (R)-3-(4-chlorophenyl)-N-(1-cyanopyrrolidin-3-yl)azetidine-1-carboxamide]	< 100
N#CN1CC[C@H](NC(=O)c2cccc(-c3ccccc3)n2)C1 [Example 48, (S)-N-(1-cyanopyrrolidin-3-yl)-6-phenylpicolinamide]	1000 to 10000
CN(C(=O)c1ccc(-c2ccccc2)cc1)C1CCN(C#N)C1 (stereo not drawn) [Example 68, N-(1-cyanopyrrolidin-3-yl)-N-methyl-[1,1′-biphenyl]-4-carboxamide]	100 to 1000
CN(C(=O)c1cc2cc(-c3cnn(C)c3)ncc2[nH]1)[C@@H]1CCN(C#N)C1 [Example 263, (R)-N-(1-cyanopyrrolidin-3-yl)-N-methyl-5-(1-methyl-1H-pyrazol-4-yl)-1H-pyrrolo[2,3-c]pyridine-2-carboxamide]	100 to 1000
Cc1noc(C)c1-c1ccc2c(C(=O)N[C@@H]3CCN(C#N)C3)nn(CC3CC3)c2c1 [Example 155, (R)-N-(1-cyanopyrrolidin-3-yl)-1-(cyclopropylmethyl)-6-(3,5-dimethylisoxazol-4-yl)-1H-indazole-3-carboxamide]	< 100
N#CN1CC[C@@H](NC(=O)c2ccc(-c3ccc(F)cc3)cn2)C1 [Example 173, (R)-N-(1-cyanopyrrolidin-3-yl)-5-(4-fluorophenyl)picolinamide]	< 100

Next, values leading:

IC50 [nM]	Molecule
< 100	COc1ccc(-c2cc(C(=O)N[C@@H]3CCN(C#N)C3)n[nH]2)cc1 [Example 95, (R)-N-(1-cyanopyrrolidin-3-yl)-5-(4-methoxyphenyl)-1H-pyrazole-3-carboxamide]
< 100	N#CN1CC[C@@H](NC(=O)c2ccc(-c3ccc4nccn4c3)cc2F)C1 [Example 118, (R)-N-(1-cyanopyrrolidin-3-yl)-2-fluoro-4-(imidazo[1,2-a]pyridin-6-yl)benzamide]
< 100	N#CN1CC[C@@H](NC(=O)c2cc(-c3ccc(F)cc3F)no2)C1 [Example 272, (R)-N-(1-cyanopyrrolidin-3-yl)-3-(2,4-difluorophenyl)isoxazole-5-carboxamide]
< 100	Cc1nn(C)cc1-c1ccc(C(=O)N[C@@H]2CCN(C#N)C2)c(F)c1 [Example 80, (R)-N-(1-cyanopyrrolidin-3-yl)-4-(1,3-dimethyl-1H-pyrazol-4-yl)-2-fluorobenzamide]
< 100	(R)-N-(1-cyanopyrroldidin-3-yl)-6-(3,5-dimethylisoxazol-4-yl)-N-methyl-1H-indole-2-carboxamide [Example 262]
< 100	CN(C(=O)c1ccc2c(c1)CCN2c1nccc(C2CC2)n1)[C@@H]1CCN(C#N)C1 [Example 240, (R)-N-(1-cyanopyrrolidin-3-yl)-1-(4-cyclopropylpyrimidin-2-yl)-N-methylindoline-5-carboxamide]
< 100	CN(C(=O)c1cc2cc(-c3cnn(C)c3)ccc2[nH]1)[C@@H]1CCN(C#N)C1 [Example 157, (R)-N-(1-cyanopyrrolidin-3-yl)-N-methyl-5-(1-methyl-1H-pyrazol-4-yl)-1H-indole-2-carboxamide]
< 100	N#CN1CC[C@@H](NC(=O)c2ccc(-c3ccncc3Cl)cc2)C1 [Example 38, (R)-4-(3-chloropyridin-4-yl)-N-(1-cyanopyrrolidin-3-yl)benzamide]
< 100	CCn1cc(-c2ccc(C(=O)N[C@@H]3CCN(C#N)C3)c(F)c2)cn1 [Example 81, (R)-N-(1-cyanopyrrolidin-3-yl)-4-(1-ethyl-1H-pyrazol-4-yl)-2-fluorobenzamide]
< 100	Cn1cc(-c2ccc3[nH]nc(C(=O)N[C@@H]4CCN(C#N)C4)c3c2)cn1 [Example 126, (R)-N-(1-cyanopyrrolidin-3-yl)-5-(1-methyl-1H-pyrazol-4-yl)-1H-indazole-3-carboxamide]
< 100	N#CN1CC[C@@H](NC(=O)c2cc(-c3ccccc3F)[nH]n2)C1 [Example 98, (R)-N-(1-cyanopyrrolidin-3-yl)-5-(2-fluorophenyl)-1H-pyrazole-3-carboxamide]
< 100	N#CN1CC[C@@H](NC(=O)c2ccc(Nc3nccc(C4CC4)n3)c(F)c2F)C1 [Example 214, (R)-N-(1-cyanopyrrolidin-3-yl)-4-((4-cyclopropylpyrimidin-2-yl)amino)-2,3-difluorobenzamide]
< 100	N#CN1C[C@H]2CCN(C(=O)Nc3ccc(C(F)(F)F)cc3)[C@H]2C1 [Example 203, (3aR,6aR)-5-cyano-N-(4-(trifluoromethyl)-phenyl)-hexahydropyrrolo[3,4-b]pyrrole-1(2H)-carboxamide]
< 100	N#CN1CCC(NC(=O)Nc2cccc(Oc3ccccc3)c2)C1 (stereo not drawn) [Example 255, 1-(1-cyanopyrrolidin-3-yl)-3-(3-phenoxyphenyl)urea]
< 100	COc1ccccc1-c1ccc(C(=O)NC2CCN(C#N)C2)cc1 (racemic) [Example 14, N-(1-cyanopyrrolidin-3-yl)-2′-methoxy-[1,1′-biphenyl]-4-carboxamide]
< 100	N#CN1CC[C@@H](NC(=O)c2ccc(Nc3ncccn3)cc2F)C1 [Example 91, (R)—N-(1-cyanopyrrolidin-3-yl)-2-fluoro-4-(pyrimidin-2-ylamino)benzamide]
< 100	Cc1ccc(-c2cc(C(=O)N[C@@H]3CCN(C#N)C3)on2)cc1C [Example 271, (R)-N-(1-cyanopyrrolidin-3-yl)-3-(3,4-dimethylphenyl)isoxazole-5-carboxamide]
